Read-outs that look alike come from different tables or passages of the source. Where a SMILES comes first, the peptide text is derived from it.
Assays:
[1] = target: T1, NAALADase (Rattus norvegicus, UniProt P70627); test: In Vitro Assay of NAALADase Activity ([3H]Glu liberated from [3H]NAAG, synaptosomal protein); assay type: biochemical; parameters: of synaptosomal protein; from tissue; host or cells: synaptosomal protein (brain tissue; rat by inference)
Description: Substrate and product were resolved by anion-exchange liquid chromatography. […] Quisqualate (100 μM) was included in parallel assay tubes to confirm the specificity of the measurements.

[2] = system: injury to the cortex in rats following middle cerebral artery occlusion; conditions: n = 10
Source text: A colony of SHRSP rats is bred at Johns Hopkins School of Medicine from three pairs of male and female rats obtained from the National Institutes of Health (Laboratory, Sciences Section, Veterinary Resources Program, National Center for Research Resources, Bethesda, Md.). All rats are kept in a virus-free environment and maintained on regular diet (NIH 31, Zeigler Bros, Inc.) with water ad libitum. All groups of rats are allowed to eat and drink water until the morning of the experiment. […]
Arterial pH and PaCO2, and partial pressure of oxygen (PaO2) are measured with a self-calibrating Radiometer electrode system (ABL 3; Copenhagen, Denmark). Hemoglobin and arterial oxygen content are measured with a hemoximeter (Radiometer, Model OSM3; Copenhagen, Denmark). Blood glucose is measured with a glucose analyzer (model 2300A, Yellow Springs Instruments, Yellow Springs, Ohio).
Each group is exposed to 2 hours of right MCA occlusion and 22 hours of reperfusion. All variables but the rectal temperature are measured at baseline, at 15 minutes and 45 minutes of right MCA occlusion. The rectal temperature is measured at baseline, at 0 and 15 min of MCA occlusion, and at 0 and 22 hours of reperfusion.

[3] = system: cortical cell cultures; test: In Vitro Toxicity of NAAG following Treatment with NAALADase Inhibitors (LDH release); assay type: cell-based, rat (Harlan Sprague Dawley); conditions: inhibitor 1 μM; NAAG 3 μM, n = 1
Description: Experiments are performed after 21 days in cultures.
At the end of exposure, the cells are washed once with HEPES buffered saline solution and then replaced with serum free modified Earle's basal medium. The cultures are then returned to the CO2 incubator for 24 hour recovery.
This control measurement is subtracted from each experimental point.

[4] = system: LNCAP cells; conditions: 7 days, mean +/- SEM
Description: On the 7th day, the cells are pulsed with 3H-thymidine for 4 hours, harvested and measured for radioactivity. Values represent means +/- SEM of 6 separate cell wells for each treatment. All experiments are performed at least twice.
LNCAP cells are obtained from Dr. William Nelson at the Johns Hopkins School of Medicine in Baltimore, Md. […] Cells are grown in RPMI-1640 media supplemented with 5% heat-inactivated fetal calf serum, 2 mM-glutamine, 100 units/ml penicillin, and 100 μg/ml streptomycin (Paragon) in a humidified incubator at 37° C. in a 5% CO2 /95% air atmosphere.
The cells are suspended at 1×10^3 cells/ml in RPMI-1640 media and seeded into 24-well plates at 500 μl per well. […] On days 3, 5 and 7, media and drug are refreshed. On the 8th day following seeding, each well is pulsed with 1 μCi ^3 H-thymidine (New England Nuclear) for 4 hours. Media is then removed and the wells washed 2 times with phosphate buffered saline (pH=7.4). […] 5 ml UltimaGold (Packard) scintillation cocktail is added and radioactivity is quantitated using a Beckman LS6001 scintillation counter.

[5] = In Vivo Toxicity of NAALADase Inhibitors (survival of mice); conditions: mouse, injected, read-out: Survival Rate After 5 days
Source text: The mice were subsequently observed two times per day for 5 consecutive days.

[6] = target: T1, NAALADase; conditions: substrate NAAG; cited from earlier work

T1 sequence (P70627 whole entry): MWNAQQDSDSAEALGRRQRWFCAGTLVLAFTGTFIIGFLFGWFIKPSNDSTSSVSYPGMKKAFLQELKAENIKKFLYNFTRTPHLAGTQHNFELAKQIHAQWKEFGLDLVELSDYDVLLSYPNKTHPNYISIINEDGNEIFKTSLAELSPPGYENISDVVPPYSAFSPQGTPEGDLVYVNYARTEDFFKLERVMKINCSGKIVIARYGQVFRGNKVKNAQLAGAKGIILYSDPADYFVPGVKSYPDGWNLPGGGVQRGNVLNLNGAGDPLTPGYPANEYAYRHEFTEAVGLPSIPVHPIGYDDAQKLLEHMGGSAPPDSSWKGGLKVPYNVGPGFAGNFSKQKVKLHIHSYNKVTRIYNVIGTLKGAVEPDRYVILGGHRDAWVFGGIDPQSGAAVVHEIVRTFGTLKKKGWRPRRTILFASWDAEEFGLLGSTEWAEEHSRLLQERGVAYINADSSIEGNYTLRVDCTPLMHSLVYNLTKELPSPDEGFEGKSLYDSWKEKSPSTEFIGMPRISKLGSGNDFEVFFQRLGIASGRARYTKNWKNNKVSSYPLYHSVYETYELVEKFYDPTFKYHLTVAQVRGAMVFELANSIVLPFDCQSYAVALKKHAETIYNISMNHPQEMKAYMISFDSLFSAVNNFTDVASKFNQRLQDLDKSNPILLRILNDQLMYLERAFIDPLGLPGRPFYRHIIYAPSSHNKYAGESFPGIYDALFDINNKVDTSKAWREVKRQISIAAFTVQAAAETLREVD

SMILES	NAALADase inhibiting activity (in words) [1]	Cortical Injury Volume ± S.E.M. ([2]; 10 mg/kg followed by 2 mg/kg/hr for 1 hour) [mm^3]	Cortical Injury Volume ± S.E.M. ([2]; 100 mg/kg followed by 20 mg/kg/hr for one hour) [mm^3]	% Toxicity [3] [%]	3H-Thymidine Incorporation ([4]; dose 10 pM) [dpm/well]	3H-Thymidine Incorporation ([4]; dose 100 pM) [dpm/well]	3H-Thymidine Incorporation ([4]; dose 1 nM) [dpm/well]	3H-Thymidine Incorporation ([4]; dose 10 nM) [dpm/well]	survival at 120 h ([5]; 1 mg/kg) [%]	survival at 120 h ([5]; 5 mg/kg) [%]	survival at 120 h ([5]; 10 mg/kg) [%]	survival at 120 h ([5]; 30 mg/kg) [%]	survival at 120 h ([5]; 100 mg/kg) [%]	survival at 120 h ([5]; 300 mg/kg) [%]	survival at 120 h ([5]; 500 mg/kg) [%]	Km [6] [nM]
O=C(O)CCC(CP(=O)(O)O)C(=O)O (centres unmarked) [2-(phosphonomethyl)pentanedioic acid]	high NAALADase inhibiting activity	135.00 ± 32.18	65.23 ± 32.18	-4.71	3078 ± 1006	2062 ± 595	1001 ± 52	664 ± 366	100	100	100	100	100	100	66.7	–
O=C(O)CCC(CP(=O)(O)CCC(=O)O)C(=O)O (centres unmarked) [2-[[2-carboxyethyl)hydroxyphosphinol]methyl]pentanedioic acid]	lower NAALADase inhibiting activity than 2-(phosphonomethyl)pentanedioic acid	–	–	–	–	–	–	–	–	–	–	–	–	–	–	–
CC(=O)N[C@@H](CC(=O)O)C(=O)N[C@@H](CCC(=O)O)C(=O)O [NAAG, N-acetyl-aspartyl-glutamate] (Ac-Asp-Glu-OH)	–	–	–	–	–	–	–	–	–	–	–	–	–	–	–	540
